# ChEMBL document CHEMBL4346752, “Discovery and evaluation of novel nitrodihydroimidazooxazoles as promising anti-tuberculosis agents” (Bioorg Med Chem Lett, 2019)
# What was measured:
# [1] = test system: Mycobacterium tuberculosis; assay: Antimycobacterial activity against Mycobacterium tuberculosis H37Rv assessed as reduction in bacterial cell growth incubated for 8 days measured under aerobic MABA conditions by alamar blue staining based assay; type: functional; details: 192 h
# [2] = test system: Mycobacterium tuberculosis; assay: Antimycobacterial activity against Mycobacterium tuberculosis H37Rv assessed as reduction in bacterial cell growth incubated for 11 days measured under anaerobic LORA condition by luminescence assay; type: functional; details: 264 h
# [3] = Cytotoxicity against African green monkey Vero cells assessed as reduction in cell viability incubated for 72 hrs by MTT assay; type: cell-based; details: chlorocebus sabaeus
# [4] = Apparent permeability across apical to basolateral side in MDCK cells at […] incubated for 60 mins by HPLC analysis; type: ADME, cell-based, Canis lupus familiaris; details: dog; for Papp A→B at 1 h: MDCK
# [5] = Apparent permeability across basolateral to apical side in MDCK cells at […] incubated for 60 mins by HPLC analysis; type: ADME, cell-based, Canis lupus familiaris; details: dog; for Papp B→A at 1 h: MDCK
# [6] = Solubility of the compound in water at pH 2 by HPLC analysis; type: physicochemical
# [7] = Solubility of the compound in water at pH 6.5 by HPLC analysis; type: physicochemical
# [8] = Efflux ratio of apparent permeability across basolateral to apical over apical to basolateral side in MDCK cells at […] incubated for 60 mins by HPLC analysis; type: ADME, cell-based, Canis lupus familiaris; details: dog
SMILES,MIC [1] [µg/mL],MIC [2] [µg/mL],CC50 at 72 h [3] [µg/mL],further results
C[C@]1(CN2CCc3nc(-c4ccc(F)c(F)c4)ccc3C2)Cn2cc([N+](=O)[O-])nc2O1,0.03,3.88,> 32,–
C[C@]1(COc2ccc(N3CCC(Oc4ccc(OC(F)(F)F)cc4)CC3)cc2)Cn2cc([N+](=O)[O-])nc2O1,< 0.031,1.23,–,Papp A→B at 1 h [4]: 0.09 ×10⁻⁶ cm/s; Papp B→A at 1 h [5]: 0.17 ×10⁻⁶ cm/s
C[C@]1(CN2CCc3nc(-c4cc(F)ccc4F)ccc3C2)Cn2cc([N+](=O)[O-])nc2O1,0.05,5.14,> 32,–
C[C@]1(CN2CCc3nc(-c4ccc(F)c(F)c4)oc3C2)Cn2cc([N+](=O)[O-])nc2O1,–,–,> 32,–
C[C@]1(CN2CCc3nc(-c4ccccc4F)ccc3C2)Cn2cc([N+](=O)[O-])nc2O1,0.05,5,> 32,–
C[C@]1(CN2CCc3nc(-c4cc(F)c(F)c(F)c4)ccc3C2)Cn2cc([N+](=O)[O-])nc2O1,0.08,0.76,> 32,solubility [6]: > 200 µM; solubility [7]: < 1 µM
C[C@]1(CN2CCc3nc(-c4ccccc4)ccc3C2)Cn2cc([N+](=O)[O-])nc2O1,–,–,> 32,efflux ratio at 1 h ([8]; MDCK): 1.35; solubility [6]: 130 µM; Papp A→B at 1 h [4]: 16.8 ×10⁻⁶ cm/s; solubility [7]: 3.35 µM; Papp B→A at 1 h [5]: 22.7 ×10⁻⁶ cm/s
C[C@]1(CN2CCc3nc(-c4ccc(Cl)cc4F)ccc3C2)Cn2cc([N+](=O)[O-])nc2O1,0.03,5.28,> 32,–
C[C@]1(CN2CCc3oc(-c4ccc(F)cc4)nc3C2)Cn2cc([N+](=O)[O-])nc2O1,–,–,> 32,–
C[C@]1(CN2CCc3nc(-c4cc(Cl)ccc4F)ccc3C2)Cn2cc([N+](=O)[O-])nc2O1,0.04,8.79,> 32,–
C[C@]1(CN2CCc3nc(C4CCCCC4)ccc3C2)Cn2cc([N+](=O)[O-])nc2O1,0.03,7.21,–,–
CO[C@H]1/C=C/O[C@@]2(C)Oc3c(C)c(O)c4c(O)c(c(/C=N/N5CCN(C)CC5)c(O)c4c3C2=O)NC(=O)/C(C)=C\C=C\[C@H](C)[C@H](O)[C@@H](C)[C@@H](O)[C@@H](C)[C@H](OC(C)=O)[C@@H]1C [RIFAMPIN],0.1,0.72,> 32,–
C[C@]1(CN2CCc3nc(-c4cc(F)cc(Cl)c4)ccc3C2)Cn2cc([N+](=O)[O-])nc2O1,0.03,6.41,> 32,–
C[C@]1(CN2CCc3nc(-c4ccc(F)c(Cl)c4)ccc3C2)Cn2cc([N+](=O)[O-])nc2O1,0.03,3.82,> 32,–
C[C@]1(CN2CCc3nc(-c4ccc(F)cc4)ccc3C2)Cn2cc([N+](=O)[O-])nc2O1,< 0.031,4.83,> 32,"Ratio ([8]; mdck, 1 h, 100000 µM): 1.09; solubility [6]: 143 µM; Papp ([4]; mdck, 1 h, 100000 µM): 20.92 ×10⁻⁶ cm/s; solubility [7]: 9.41 µM; Papp ([5]; mdck, 1 h, 100000 µM): 19.29 ×10⁻⁶ cm/s"
C[C@]1(CN2CCc3nc(-c4ccc(F)cc4)oc3C2)Cn2cc([N+](=O)[O-])nc2O1,–,–,> 32,–
C[C@]1(CN2CCc3nc(-c4cc(F)ccc4Cl)ccc3C2)Cn2cc([N+](=O)[O-])nc2O1,0.15,4.28,> 32,–
C[C@]1(CN2CCc3nc(-c4ccc(Cl)c(F)c4)ccc3C2)Cn2cc([N+](=O)[O-])nc2O1,0.03,3.79,> 32,–
C[C@]1(CN2CCc3nc(-c4ccc(C(F)(F)F)cc4)ccc3C2)Cn2cc([N+](=O)[O-])nc2O1,0.03,> 8,> 32,–
C[C@]1(CN2CCc3nc(-c4ccc(F)cc4F)ccc3C2)Cn2cc([N+](=O)[O-])nc2O1,0.03,> 8,12.5,–
C[C@]1(CN2CCc3nc(-c4cccc(F)c4F)ccc3C2)Cn2cc([N+](=O)[O-])nc2O1,0.03,3.72,> 32,–
C[C@]1(CN2CCc3nc(-c4cccc(Cl)c4F)ccc3C2)Cn2cc([N+](=O)[O-])nc2O1,0.03,5.71,> 32,–
C[C@]1(CN2CCc3nc(-c4cccc(F)c4)ccc3C2)Cn2cc([N+](=O)[O-])nc2O1,0.02,6.5,> 32,–
C[C@]1(CN2CCc3nc(-c4ccc(F)cc4)sc3C2)Cn2cc([N+](=O)[O-])nc2O1,–,–,> 32,–
C[C@]1(CN2CCc3nc(-c4cc(F)cc(F)c4)ccc3C2)Cn2cc([N+](=O)[O-])nc2O1,0.03,1.64,> 32,–
